Entries after “also recorded” stand apart in the source; their conditions may differ.
Tests used:
[1] = Total hemoglobin in phlebotomized anemic baboons, continuous versus pulse therapy; type: in vivo, baboon; settings: continuous, 700 mg/kg/day for 5 days; phlebotomized baboon; from 6.7
Experimental: Therapy was administered to anemic baboons who were being phlebotomized 5-10 ml/kg of blood per day on a continuous basis. EPO was administered daily at 300 U/kg/dose. Arginine butyrate was administered daily at 700 mg/kg/day for 5 days and phenoxyacetic acid at 500 mg/kg/day daily over 8 hours and at 1000 mg/kg/day for 24 hours/day daily for five days each. […] With continuous arginine butyrate treatment, hemoglobin remained essentially stable at 6.7 to 6.9 gram/dl. With continuous treatment with phenoxyacetic acid, hemoglobin levels remained stable at 7.0 gram/dl to 6.9 gram/dl during 8 hour therapy and declined from 6.8 to 4.5 when the drug was given for 24 hours per day for 5 days.

[2] = Weekly versus pulse butyrate therapy in sickle cell and beta thalassemia patients; type: in vivo, human; parameters: F-retics On / F-cells On: unit not given here
Experimental: To determine if arginine butyrate can be used for therapeutic benefit, two low-dose regimens of butyrate were studied. Treatment were given intermittently either weekly, or in a pulse fashion, at 2-3 week intervals. […]
Patients were treated by pulse therapy for 4-18 months with arginine butyrate. […] It is preferred to avoid prolonged treatment with high doses of butyrate, which cause cellular growth arrest in G1, and can enhance the accelerated apoptosis of beta thalassemia. Partial tolerance observed with long-term weekly therapy appears related to erythroid cell growth arrest and a decline in EPO levels as Hgb and Hct rise and depletion of available iron stores. Treatment with additional doses of iron supplements can overcome some of the anti-proliferative activities of butyrate in vitro. Time required on therapy has been only 25%-35% of the treatment days per month necessary for effective transfusion and iron chelation. This has improved the quality of life of some patients.
To determine if these potentially opposing actions can be balanced for therapeutic effect, two intermittent schedules of butyrate were compared in 21 treatment courses in 14 patients ages 3 to 55 years, with sickle cell disease or β thalassemia. An optimal dose was identified on an individual patient regimen and continued on a weekly basis in eleven patients. Providing 7 to 14 days without any drug exposure to facilitate proliferation of treated cells, an alternate week regimen or pulse therapy, was administered to twelve patients (see Tables V, VI and VI).
A series of ten patients with sickle cell anemia and β-thalassemia were treated with continuous therapy with arginine butyrate. In 3 out of 4, transfusion requirement was diminished. […] The mean peak in total HgB which was detectable in the ten patients over their baseline was 1.6 gm/dl.
Patients were next administered a pulse therapy regimen. Each session comprised eight to twelve hours of nightly infusions. […] Total increases in Hgb were sustained as high as 3.0 g/dl above baseline levels with a mean increase of 2.1 g/dl in 8 out of 12 patients (p<0.05, paired t-test, chi square).

[3] = pulse therapy, 4/6 severe thalassemia patients
[4] = weekly therapy, patient Hb SS, 24 weeks
[5] = weekly therapy, patient HbSS, 4 weeks
[6] = weekly therapy, patient frameshift 5, 5 weeks
[7] = weekly therapy, patient β-39,-39, 8 weeks
[8] = weekly therapy, patient βIVS I, 1-6, 40 weeks

In the case of arginine butyrate, the “total hemoglobin after treatment” value [1] is reported as 6.9 gram/dl, the fetal hemoglobin levels ([2]; 4 days, infusions about 8 hours per day, followed by 7 days of no treatment) is reported as “rise substantially” and the “patients with diminished transfusion requirement” value ([2]; continuous therapy) is reported as 3 out of 4. The “mean peak in total HgB over baseline” value ([2]; continuous therapy, ten patients) was 1.6 gm/dl, the patients responding hematologically ([2]; intermittent pulse therapy) was 8/10 and the transfusion-dependency ([2]; pulse regimen, thalassemia major) was “eliminated previous transfusion-dependency; also recorded: Transfusion-dependency was eliminated”. The “hematologic responses above baseline levels” value ([2]; pulse therapy) was 2-5 gram/dl, the “patients with fetal globin genes reactivated to a hematologically compensating degree” value ([2]; pulse therapy for 4-18 months) was 8 out of 12 and the “total increases in Hgb above baseline, sustained” value ([2]; pulse therapy regimen) was no more than 3.0 g/dL. The “mean increase in Hgb above baseline” value ([2]; pulse therapy regimen, 8 out of 12 patients) was 2.1 g/dL, the “increase in total Hb levels” value [2, 3] was 2-3 grams/dl and the “total Hb level reached” value [2, 3] was greater than 9.0 gm/dl. The “Hb F reached” value ([2]; pulse therapy, patient) was 29%, the “Increase in Total Hgb” value ([2]; pulse therapy, patient HbE/?, 15 weeks) was 1.7 g/dL and the “Non-∀/∀* On (non-α: α globin chain synthesis ratios)” value ([2]; pulse therapy, patient HbE/?, 15 weeks, Base 0.17) was 0.25. The “F-cells On” value ([2]; pulse therapy, patient HbE/?, 15 weeks, Base 79) was 84, the “Percent HbF On” value ([2]; pulse therapy, patient HbSS, 7 weeks, Base 0.5) was 1.5% and the “F-retics On” value ([2]; pulse therapy, patient HbSS, 7 weeks, Base 8) was 9.3. For the same substance, the “F-cells On” value ([2]; pulse therapy, patient HbSS, 7 weeks, Base 11) was 8, the “Percent HbF On” value ([2]; pulse therapy, patient HbSS, 9 weeks, Base 0.5) was 1.0% and the “F-retics On” value ([2]; pulse therapy, patient HbSS, 9 weeks, Base 0.7) was 6.7. For the same substance, the “F-cells On” value ([2]; pulse therapy, patient HbSS, 9 weeks, Base 15) was 0.5, the “Increase Total Hgb” value ([2]; pulse therapy, patient HbSS, 11 weeks) was “+1.0 g/dl” and the “Percent HbF On” value ([2]; pulse therapy, patient HbSS, 11 weeks, Base 3) was 24%. For the same substance, the “F-retics On” value ([2]; pulse therapy, patient HbSS, 11 weeks, Base 18) was 25, the “F-cells On” value ([2]; pulse therapy, patient HbSS, 11 weeks, Base 28) was 58 and the “Increase Total Hgb” value ([2]; pulse therapy, patient HbSS, 15 weeks) was “+2.0 g/dl”. The “Percent HbF On” value ([2]; pulse therapy, patient HbSS, 15 weeks, Base 6.9) was 22%, the “F-retics On” value ([2]; pulse therapy, patient HbSS, 15 weeks, Base 12.6) was 24 and the “F-cells On” value ([2]; pulse therapy, patient HbSS, 15 weeks, Base 23) was 59. The “Increase Total Hgb” value ([2]; pulse therapy, patient HbSS, 18 weeks) was “+2.0 g/dl”, the “Percent HbF On” value ([2]; pulse therapy, patient HbSS, 18 weeks, Base 8) was 35% and the “F-retics On” value ([2]; pulse therapy, patient HbSS, 18 weeks, Base 35) was 46. The “F-cells On” value ([2]; pulse therapy, patient HbSS, 18 weeks, Base 50) was 65, the “Increase Total Hgb” value ([2]; pulse therapy, patient HbSS, 28 weeks) was “+1.0 g/dl” and the “Percent HbF On” value ([2]; pulse therapy, patient HbSS, 28 weeks, Base 6) was 29%. For the same substance, the “F-retics On” value ([2]; pulse therapy, patient HbSS, 28 weeks, Base 18) was 36, the “F-cells On” value ([2]; pulse therapy, patient HbSS, 28 weeks, Base 42) was 56 and the “Non-∀/∀* On (non-α: α globin chain synthesis ratios)” value ([2]; pulse therapy, patient frameshift-5, 24 weeks, Base 0.5) was 0.75. The “F-cells On” value ([2]; pulse therapy, patient frameshift-5, 24 weeks, Base 100) was 100, the “Increase in Total Hgb” value ([2]; pulse therapy, patient β-39-87, 68 weeks) was 3.6 g/dL and the “Non-∀/∀* On (non-α: α globin chain synthesis ratios)” value ([2]; pulse therapy, patient β-39-87, 68 weeks, Base 0.6) was 1.1. For the same substance, the “F-cells On” value ([2]; pulse therapy, patient β-39-87, 68 weeks, Base 29) was 100, the “Increase in Total Hgb” value ([2]; pulse therapy, patient β-39, 7 weeks) was 3.0 g/dL and the “Non-∀/∀* On (non-α: α globin chain synthesis ratios)” value ([2]; pulse therapy, patient β-39, 7 weeks, Base 0.4) was 0.9. For the same substance, the “F-cells On” value ([2]; pulse therapy, patient β-39, 7 weeks, Base 100) was 100, the “Increase in Total Hgb” value ([2]; pulse therapy, patient βIVS I-1, 4 weeks) was 2.1 g/dL and the “Non-∀/∀* On (non-α: α globin chain synthesis ratios)” value ([2]; pulse therapy, patient βIVS I-1, 4 weeks, Base 0.5) was 0.9. For the same substance, the “F-cells On” value ([2]; pulse therapy, patient βIVS I-1, 4 weeks, Base 100) was 100, the “Non-∀/∀* On (non-α: α globin chain synthesis ratios)” value ([2]; pulse therapy, patient βIVS II, 33 weeks, Base 0.5) was 0.7 and the “F-cells On” value ([2]; pulse therapy, patient βIVS II, 33 weeks, Base 10) was 16. For the same substance, the “patients with desired hematologic responses” value ([2]; pulse therapy, sickle cell and beta thalassemia patients) was 8 of 12, the adverse side effects ([2]; up to 17 months of home therapy and 350 weeks of patient treatment) was “No significant adverse side effects” and the “Hb F responses” value ([2]; weekly therapy) was 4-10%. The “patients with biochemical (Hb F) responses” value ([2]; weekly therapy) was 8/10, the “patients with biochemical increases in fetal globin expression” value ([2]; weekly therapy) was 8/11 and the “rises in total hemoglobin, mean” value ([2]; weekly therapy) was 1.6 gm/dl. For the same substance, the “increases in total Hb above baseline levels” value ([2]; weekly therapy, in 6/10) was 1-4 gram/dl, the Comments [2, 4] was “response declined” and the “Increase in Total Hgb” value [2, 4] was “+2.0 gm/dl”. For the same substance, the “F-retics On” value ([2]; weekly therapy, patient Hb SS, 24 weeks, Base 12.7) was 35.3, the Comments ([2]; weekly therapy, patient HbE/?, 9 weeks) was “transfusions cont” and the “F-retics On” value ([2]; weekly therapy, patient HbE/?, 9 weeks, Base 42) was 52.7. The Comments ([2]; weekly therapy, patient HbS, β-39, 6 weeks) was “transfusions cont”, the “F-retics On” value ([2]; weekly therapy, patient HbS, β-39, 6 weeks, Base 4) was 20 and the Comments [2, 5] was “response declined”. For the same substance, the “Increase in Total Hgb” value [2, 5] was “+1.0 gm/dl”, the “F-retics On” value ([2]; weekly therapy, patient HbSS, 4 weeks, Base 14) was 30.7 and the Comments [2, 6] was “response declined”. For the same substance, the “Increase in Total Hgb” value [2, 6] was “+1.0 gm/dl”, the “F-retics On” value ([2]; weekly therapy, patient frameshift 5, 5 weeks, Base 0.5) was 1 and the Comments ([2]; weekly therapy, patient β(-39-39), 8 weeks) was “AIHA, trans. cont”. For the same substance, the “F-retics On” value ([2]; weekly therapy, patient β(-39-39), 8 weeks, Base 60) was 77, the Comments [2, 7] was “plateaued” and the “Increase in Total Hgb” value [2, 7] was 1.5 gm/dl. The “F-retics On” value ([2]; weekly therapy, patient β-39,-39, 8 weeks, Base 76) was 68, the “Increase in Total Hgb” value ([2]; weekly therapy, patient β-39-87, 16 weeks) was “+2.3 gm/dl” and the “F-retics On” value ([2]; weekly therapy, patient β-39-87, 16 weeks, Base 64.7) was 67.3. For the same substance, the Comments [2, 8] was “response declined”, the “Increase in Total Hgb” value [2, 8] was “+4.3 gm/dl” and the “F-retics On” value ([2]; weekly therapy, patient βIVS I, 1-6, 40 weeks, Base 56) was 75. The “Increase in Total Hgb” value ([2]; weekly therapy, patient βIVS II-745, 7 weeks) was 3 gm/dl, the “F-retics On” value ([2]; weekly therapy, patient βIVS II-745, 7 weeks, Base 4) was 16 and the “rises in total hemoglobin, mean” value ([2]; weekly therapy, the 6 responsive patient (6/9 treated)) was 2.4 gm/dl.

— US6403647B1, “Pulsed administration of compositions for the treatment of blood disorders” (priority 1996, dated 2002)
